BindingDB's records for doi:10.1016/j.bmcl.2019.05.029 (Novira Therapeutics, 2019)

Test: Binding affinity to capsid protein in Hepatitis B virus infected in human HepG2.2.15 cells assessed as inhibition of HBV DNA replication incubated for 3 days followed by replacement of fresh medium containing compound and measured after 3 days by chemiluminescent assay

Row | SMILES | EC50
1 | O=C(Nc1ccc(F)c(Cl)c1)c1ccc(F)c(S(=O)(=O)N2CCCCC(CO)C2)c1 (centres undefined) | 140 nM
2 | O=C(Nc1ccc(F)c(Cl)c1)c1ccc(F)c(S(=O)(=O)N2CCOCC(O)C2)c1 (centres undefined) | 100 nM
3 | CC1(O)CCCN(S(=O)(=O)c2cc(C(=O)Nc3ccc(F)c(Cl)c3)ccc2F)CC1 (centres undefined) | 110 nM
4 | CN1CCCN(S(=O)(=O)c2cc(C(=O)Nc3ccc(F)c(Cl)c3)ccc2F)CC1=O | 220 nM
5 | O=C(Nc1ccc(F)c(Cl)c1)c1ccc(F)c(S(=O)(=O)N2CCCC(O)CC2)c1 (centres undefined) | 140 nM
6 | O=C(Nc1ccc(F)c(Cl)c1)c1ccc(F)c(S(=O)(=O)N2CCCCC(O)C2)c1 (centres undefined) | 170 nM
7 | O=C(Nc1ccc(F)c(Cl)c1)c1ccc(F)c(S(=O)(=O)N2CCCCC(F)(F)C2)c1 | 140 nM
8 | O=C(Nc1ccc(F)c(Cl)c1)c1ccc(F)c(S(=O)(=O)N2CCCCC(O)CC2)c1 (centres undefined) | 52 nM
9 | O=C(Nc1ccc(F)c(Cl)c1)c1ccc(F)c(S(=O)(=O)N2CCCCCC(O)C2)c1 (centres undefined) | 60 nM
10 | CN1CCN(S(=O)(=O)c2cc(C(=O)Nc3ccc(F)c(Cl)c3)ccc2F)CC(O)C1 (centres undefined) | 470 nM
11 | CC1(O)COCCN(S(=O)(=O)c2cc(C(=O)Nc3ccc(F)c(Cl)c3)ccc2F)C1 (centres undefined) | 100 nM
12 | O=C(Nc1ccc(F)c(Cl)c1)c1ccc(F)c(S(=O)(=O)N2CCSCC(O)C2)c1 (centres undefined) | 170 nM
13 | O=C(Nc1ccc(F)c(Cl)c1)c1ccc(F)c(S(=O)(=O)N2CCOCC(F)C2)c1 (centres undefined) | 80 nM
14 | O=C(Nc1ccc(F)c(Cl)c1)c1ccc(F)c(S(=O)(=O)N2CCOC[C@H](O)C2)c1 | 63 nM
15 | CC1(O)CCCCN(S(=O)(=O)c2cc(C(=O)Nc3ccc(F)c(Cl)c3)ccc2F)C1 (centres undefined) | 120 nM
16 | O=C(Nc1ccc(F)c(Cl)c1)c1ccc(F)c(S(=O)(=O)N2CCCCCCC2O)c1 (centres undefined) | 120 nM
17 | COC1COCCN(S(=O)(=O)c2cc(C(=O)Nc3ccc(F)c(Cl)c3)ccc2F)C1 (centres undefined) | 130 nM
18 | O=C(Nc1ccc(F)c(Cl)c1)c1ccc(F)c(S(=O)(=O)N2CCOC[C@@H](O)C2)c1 | 140 nM
19 | CC(O)C1CCCCN(S(=O)(=O)c2cc(C(=O)Nc3ccc(F)c(Cl)c3)ccc2F)C1 (centres undefined) | 140 nM
